This note sets out measurements from US4552882A, “7-(1-Pyrrolyl) derivatives of 1-ethyl-1,4-dihydro-4-oxoquinoline-3-carboxylic acids and 1-ethyl-1,4-dihydro-4-oxo-1,8-naphthyridine-3-carboxylic acids and their use as antimicrobial agents” (Provesan, SA, priority 1983, dated 1985).

Each structure is given as a SMILES string. ≈ marks a conversion by molar mass, not a printed value.

Type in all cases: cell-based
The test system of assay [1] is Staphylococcus aureus ATCC 25178. Kind of assay: MIC in vitro. Conditions: ATCC25178, Dextrose agar, 37° C., 20 hours. As to the method:
(§1) (G. L. Daquet and Y. A. Chabbect, Techniques en bacteriologie (Bacteriological techniques), vol. 3, Flammarion Medecine Sciences, Paris, 1972 and W. B. Hugo and A. D. Rusell, Pharmaceutical Microbiology, Blackwell Scientific Publications, London, (1977)). Antibiotic medium no. 1 (seed agar) (Oxoid CM 327) Tryptone-soya broth (Oxoid CM 129) Ringer's physiological solution 1/4 (oxoid BR 52) Dextrose agar (BBL-11165) 0.1 N NaOH "Staphylococcus aureus" ATCC 25178 Each of the microorganisms is seeded by streaking in tubes of Antibiotic medium No. 1 (seed agar), which are then incubated at 37° C. for 20 hours. Using a culture loop, the cultures are then seeded in tryptone-soyabroth and incubated at 37° C. for 20 hours. The culture obtained is diluted to 1/4 with Ringer's physiological solution, so as to obtain a standardized suspension of 10^7 -10^9 cfu/ml for each organism. Starting from a solution of 1,000 μg/ml in 0.1 N NaOH, each product is diluted in Dextrose agar (previously melted and maintained at 50° C.), with successive dilutions so as to obtain the following concentrations: 64--32--16--8--4--2--1--0.5--0.25--0.125 μg of derivative/ml medium. For each product, the solution of each concentration is subsequently distributed into Petri dishes 10 cm in diameter, with 10 ml of medium per dish and the same number of dishes as microorganisms to be tested. As soon as the medium has cooled, the dishes are seeded with the inoculations using 0.4 ml of inoculation per dish. They are spread with a Driglasky loop and the supernatant is removed. The seeded dishes are incubated at 37° C. for 20 hours.

The test system of assay [2] is Enterobacter cloacae CHSP 20. Briefly: MIC in vitro. The conditions noted are these: CHSP20, Dextrose agar, 37° C., 20 hours. How it is done:
as §1, with “"Enterobacter cloacae" CHSP 20” for “"Staphylococcus aureus" ATCC 25178”

Assay [3] relates to gram-negative microorganisms. Briefly: in vitro antimicrobial activity compared to pipemidic acid. How it is done:
(G. L. Daquet and Y. A. Chabbect, Techniques en bacteriologie (Bacteriological techniques), vol. 3, Flammarion Medecine Sciences, Paris, 1972 and W. B. Hugo and A. D. Rusell, Pharmaceutical Microbiology, Blackwell Scientific Publications, London, (1977)).
Antibiotic medium no. 1 (seed agar) (Oxoid CM 327)
Tryptone-soya broth (Oxoid CM 129)
Ringer's physiological solution 1/4 (oxoid BR 52) Dextrose agar (BBL-11165) 0.1 N NaOH
Each of the microorganisms is seeded by streaking in tubes of Antibiotic medium No. 1 (seed agar), which are then incubated at 37° C. for 20 hours. Using a culture loop, the cultures are then seeded in tryptone-soyabroth and incubated at 37° C. for 20 hours. The culture obtained is diluted to 1/4 with Ringer's physiological solution, so as to obtain a standardized suspension of 10^7 -10^9 cfu/ml for each organism.
Starting from a solution of 1,000 μg/ml in 0.1 N NaOH, each product is diluted in Dextrose agar (previously melted and maintained at 50° C.), with successive dilutions so as to obtain the following concentrations: 64--32--16--8--4--2--1--0.5--0.25--0.125 μg of derivative/ml medium.
For each product, the solution of each concentration is subsequently distributed into Petri dishes 10 cm in diameter, with 10 ml of medium per dish and the same number of dishes as microorganisms to be tested.
As soon as the medium has cooled, the dishes are seeded with the inoculations using 0.4 ml of inoculation per dish. They are spread with a Driglasky loop and the supernatant is removed. The seeded dishes are incubated at 37° C. for 20 hours.

For orientation: MIC means the lowest concentration that inhibits growth of the organism. For `CCn1cc(C(=O)O)c(=O)c2cnc(N3CCNCC3)nc21` [Pipemidic acid, reference compound], the MIC amounted to 64 µg/mL (≈ 211 µM) in assay [1] and 8 µg/mL (≈ 26.4 µM) in assay [2].
As to `CCn1cc(C(=O)O)c(=O)c2ccc(-n3cccc3)nc21` [Example 3, 1-ethyl-1,4-dihydro-4-oxo-7-(1-pyrrolyl)-1,8-naphthyridine-3-carboxylic acid], the “activity compared to pipemidic acid” value in assay [3] is recorded as “activity of the same order as that of pipemidic acid”. The MIC in assay [1] stood at 4 µg/mL (≈ 14.1 µM); in assay [2], 8 µg/mL (≈ 28.2 µM).
As to `CCn1cc(C(=O)O)c(=O)c2ccc(-n3cccc3)cc21` [Example 1, 7-(1-pyrrolyl)-1-ethyl-1,4-dihydro-4-oxo-3-quinolinecarboxylic acid], the results for the MIC in assay [1] and in assay [2] were 1 µg/mL (≈ 3.54 µM) and 16 µg/mL (≈ 56.7 µM), respectively.
For `CCn1cc(C(=O)O)c(=O)c2cc(F)c(-n3cccc3)nc21` [Example 4, 1-ethyl-1,4-dihydro-4-oxo-6-fluoro-7-(1-pyrrolyl)-1,8-naphthyridine-3-carboxylic acid], the MIC in assay [1] came out at 0.5 µg/mL (≈ 1.66 µM); in assay [2] it was 2 µg/mL (≈ 6.64 µM).
The matching figures for `CCn1cc(C(=O)O)c(=O)c2cc(F)c(-n3cccc3)cc21` [Example 2, 6-fluoro-7-(1-pyrrolyl)-1-ethyl-1,4-dihydro-4-oxo-3-quinolinecarboxylic acid]: 0.25 µg/mL (≈ 0.833 µM) and 1 µg/mL (≈ 3.33 µM).
